Like-named read-outs stand apart in the source and are kept apart here.
Legend:
primary cortical neurons = test: Hemin-induced toxicity in primary cortical neurons (MTT, LIVE/DEAD); format: cell-based; settings: for EC50: primary cortical neurons, MTT assay, read-out: EC50 for abrogating hemin toxicity
Source text: (§1) FIGS. 1A-1L: Structurally diverse HIF PHD inhibitors stabilize HIF-1 and abrogate toxicity induced by hemin, a byproduct of blood breakdown, in cortical neurons hippocampal neuroblasts and striatal neuroblasts (not shown).
(§2) Secondary injury from ICH has been attributed to hemin, a breakdown product of hemoglobin (from lysed red blood cells). To investigate the mechanisms of hemin toxicity to neurons in vitro, this experiment exposed primary cortical neurons, immortalized hippocampal neuroblasts (HT22 cells), and immortalized striatal neuroblasts (Q7 cells) to hemin for 24 hours. As expected, a dose dependent loss in viability as measured by MTT reduction or LIVE/DEAD assay in all three cell types was observed. […] To examine whether iron-dependent HIF PHD enzymes can be modulated to protect neurons from hemin-induced toxicity, this experiment examined structurally diverse inhibitors of the HIF PHDs: desferoxamine, cyclopirox, and dihydroxybenzoic acid. […] To test this notion further using a chemical biological approach, the protective effects of cyclopirox, a HIF PHD inhibitor, and a cyclopirox analog with no PHD inhibitory activity but with similar metal binding affinity to cyclopirox were compared. As expected, only the cyclopirox analog with PHD inhibitory activity was neuroprotective.

HIF PHDs [1] = test: ODD-luciferase cell based assay
HIF-1 protein = HIF-1 protein stabilisation in primary neurons (Western blot); format: cell-based; settings: primary neurons, Western blot
Source text: FIGS. 1A-1L: Structurally diverse HIF PHD inhibitors stabilize HIF-1 and abrogate toxicity induced by hemin, a byproduct of blood breakdown, in cortical neurons hippocampal neuroblasts and striatal neuroblasts (not shown). […] FIGS. 6A-6I. […] Expression of ATF4 was forced into primary neurons, which induces death of these neurons by MTT assay (FIG. 6D) or LIVE/DEAD staining, Green is live, Red is dead (FIG. 6E).

HIF PHDs [2] = test: ODD-luciferase reporter mice, in vivo bioluminescence imaging and tissue lysates; settings: in vivo bioluminescence imaging; intraperitoneal; adaptoquin 30 mg/kg
Source text: FIGS. 3A-3G. Validation of adaptoquin as a novel HIF PHD inhibitor. […] Under steady state conditions, activity of HIF PHD2 with its co-substrate 2-oxoglutarate involves two peaks that represent non-hydroxylated and hydroxylated peptide. The hydroxylated peptide disappears in the presence of HIF PHD2 inhibition by adaptoquin. […] The reporter contains the ODD domain of HIF-1 which confers HIF PHD regulated stability on it. It is expressed in all cells of the body, but is destabilized in the absence of HIF PHD inhibition and stabilized in its presence. Quantitative measurements confirm stability of the ODD-luc in brain, kidney and liver (FIGS. 3D and 3E.).
To identify HIF PHD inhibitors suitable for testing in ICH, the experiment first sought to identify which of the known HIF PHD inhibitors could penetrate the blood brain barrier to inhibit HIF PHD activity in the CNS. To monitor HIF PHD activity dynamically, the experiment utilized mice that had previously been engineered to ubiquitously express the oxygen degradation domain (ODD) of HIF-1α fused to firefly luciferase. The ODD domain contains proline 402 and 564, which are hydroxylated by the HIF PHDs to degrade HIF-1 or the ODD-luciferase. Accordingly, these mice have been used previously to track HIF PHD activity in diverse organs in vivo using in vivo bioluminescence imaging.
To verify that the changes in light in the brain reflect parenchymal changes in ODD-luciferase levels rather than increases in changes in skin or dural ODD-luciferase, ODD-luciferase activity was measured normalized to total protein in lysates from distinct brain regions using a luminometer.

[3] = system: immortalized striatal neuroblasts (Q7 cells); test: Hemin-induced toxicity in striatal neuroblasts (MTT); format: cell-based; settings: MTT assay, read-out: EC50 for abrogating hemin toxicity
Source text: as §1, §2

[4] = system: immortalized hippocampal neuroblasts (HT22 cells); test: Hemin-induced toxicity in hippocampal neuroblasts (MTT); format: cell-based; settings: MTT assay, read-out: EC50 for abrogating hemin toxicity
Source text: as §1
as §2, with “neuroprotective. […]” for “neuroprotective.”

SMILES | EC50 (primary cortical neurons; Primary cortical neuron) | Prevention of hemin-induced death (primary cortical neurons; neurons, FIGS. 1M, 1O-1R) | ODD-luciferase activity in cell based assays (HIF PHDs [1]) | Stabilisation of HIF-1 protein (HIF-1 protein) | ODD-luciferase activity in brain (HIF PHDs [2]) | EC50 (primary cortical neurons) | EC50 [3] | EC50 [4]
Cc1cc(C2CCCCC2)n(O)c(=O)c1 [cyclopirox] | 1.4 µM | prevents hemin-induced death | induced the ODD-luciferase activity in cell based assays | stabilize HIF-1 protein | failed to increase ODD-luciferase activity in the brain | – | – | –
CC(=O)N(O)CCCCCNC(=O)CCC(=O)N(O)CCCCCNC(=O)CCC(=O)N(O)CCCCCN [Desferoxamine] | – | – | induced the ODD-luciferase activity in cell based assays | stabilize HIF-1 protein | failed to increase ODD-luciferase activity in the brain | 34.1 µM | 26.7 µM | 50.8 µM
